Test results reported in publication PMC11597774, “Investigation of Antimicrobial and Anti-Inflammatory Efficacy of Newly Synthesized Pyrogallol-Coumarin Hybrids: In Vitro and In Silico Studies” (Pharmaceutics, 2024).
≈ marks a conversion by molar mass, not a printed value.

Experiments:
P. aeruginosa ATCC 27853 = experiment: Inhibition of biofilm formation (crystal violet); assay type: cell-based, Pseudomonas aeruginosa; conditions: for BIC90: P. aeruginosa ATCC 27853, 48 h; for IC50: Pseudomonas aeruginosa, ATCC27853, P. aeruginosa ATCC 27853, 48 h, read-out: BIC50
Description: The ability of S. aureus ATCC 6538, P. mirabilis ATCC 12453, and P. aeruginosa ATCC 27853 to form biofilms was assayed as described by O’Toole et al. (2000), with some modifications. Briefly, tissue culture 96-well microtiter plates (Sarstedt, Germany) were prepared by dispensing 100 µL of nutrient broth (i.e., Mueller Hinton broth) into each well. Then, 10 µL of spore suspension (1.0 McFarland for Gram-positive bacteria and 0.5 McFarland for Gram-negative bacteria) was added to each row. To encourage biofilm formation, all plates were incubated at 37 °C for 48 h, after which the content of each well was emptied and washed twice with 200 µL of sterile 0.85% saline to remove non-adherent cells. The biofilms formed were fixed by adding 100 µL of methanol until it evaporated completely, then stained with 0.1% (w/v) crystal violet (Fluka AG, Buchs, Switzerland) and left at room temperature for 20 min. The excess stain was washed away with deionized water, followed by […] of 96% ethanol. The optical densities (ODs) of the stained biofilms were measured with an ELISA plate reader (RT-2100C, Rayto, Shenzhen, China) at 630 nm. Control wells containing only broth were included to verify sterility and prevent nonspecific media binding. To account for background absorbance, OD readings from sterile medium, fixative, and dye were averaged and subtracted from all test measurements. All tests were conducted in duplicate. The tissue culture 96-well microtiter plates (Sarstedt, Germany) were prepared by dispensing 100 µL of nutrient broth (i.e., Mueller Hinton broth) into each well. From the stock solutions of tested PCH-1 and PCH-2 (at a concentration of 5.4 µmol/L), 100 µL was added to the first row of the microtiter plate. Twofold serial dilutions were then performed, followed by the addition of 10 µL of bacterial suspension to each well. The turbidity of the bacterial suspension was 0.5 McFarland for Gram-negative bacteria and 1.0 McFarland for Gram-positive bacteria. The microtiter plates prepared in this way were incubated at 37 °C for 48 h. The remaining steps of the experiment were carried out as outlined below. […] Only broth or broth with tested PCH-1 and PCH-2 served as controls to check sterility and nonspecific binding of media. To compensate for background absorbance, OD readings from sterile medium, extracts, fixative, and dye were averaged and subtracted from all test values. All tests were performed in duplicate.

S. aureus ATCC 25923 = experiment: Microdilution MIC/MMC with resazurin; assay type: cell-based, Staphylococcus aureus; conditions: for MIC: Staphylococcus aureus, ATCC25923
S. enterica = experiment: Microdilution MIC/MMC with resazurin; assay type: cell-based, Salmonella enterica; conditions: for MMC: S. enterica; for MIC: Salmonella enterica
Description: (§1) The antimicrobial activity of PCH-1 and PCH-2 was tested against 13 microorganisms. The experiment included four standard strains, Staphylococcus aureus ATCC 6538, Bacillus subtilis ATCC 6633, Proteus mirabilis ATCC 12453, and Pseudomonas aeruginosa ATCC 27853; five isolates, Staphylococcus aureus, Escherichia coli, Salmonella enterica, Klebsiella pneumoniae, and Bacillus subtilis; and one probiotic strain Lactobacillus plantarum 299V. Additionally, three fungal strains were tested, including one standard strain, Candida albicans ATCC 10231, and two isolates, Saccharomyces cerevisiae and probiotic strain Saccharomyces boulardii.
(§2) The bacterial suspensions were prepared using the direct colony method. The turbidity of the initial suspension was adjusted using a densitometer (DEN-1, BioSan, Latvia). When adjusted to the turbidity of the 0.5 McFarland standard, the bacterial suspension contains approximately 10^8 colony-forming units (CFU)/mL, and the yeast suspension contains approximately 10^6 CFU/mL. For the experiment, the initial suspension was further diluted at a 1:100 ratio in a sterile 0.85% saline solution.
(§3) The antimicrobial activity was assessed by determining the minimum inhibitory concentrations (MICs) and minimum microbicidal concentrations (MMCs) using the microdilution plate method with resazurin (Alfa Aesar GmbH & Co. (KG, Karlsruhe, Germany)). For this, 96-well plates were prepared by adding 100 μL of Mueller Hinton broth (Torlak, Belgrade, Serbia) for bacterial tests and Sabouraud broth (Torlak, Belgrade, Serbia) for yeast into each well. The tested PCH-1 and PCH-2 were dissolved in 10% dimethyl sulfoxide (DMSO) and then diluted into sterile distilled water. A 100 μL sample from the stock solution of the tested compound was then added to the first row of the plate, followed by twofold serial dilutions using a multichannel pipette. This produced a concentration range from 2.69 to 0.0025 µmol/L. The method is described in detail in the reported paper.
(§4) Each test setup included growth control and sterility control. […] Minimum microbicidal concentrations (MMCs) were determined as described in detail in the reported paper.

S. cerevisiae = experiment: Microdilution MIC/MMC with resazurin; assay type: cell-based, Saccharomyces cerevisiae; conditions: for MIC: Saccharomyces cerevisiae
Description: as §1, §2, §3, §4

S. boulardii = experiment: Microdilution MIC/MMC with resazurin; assay type: cell-based, Saccharomyces boulardii; conditions: for MIC: Saccharomyces cerevisiae
Description: as §1, §2, §3, §4

L. plantarum 299V = experiment: Microdilution MIC/MMC with resazurin; assay type: cell-based, Lactobacillus plantarum; conditions: for MIC: Lactiplantibacillus plantarum
Description: as §1, §2, §3, §4

Row | SMILES | BIC90 (P. aeruginosa ATCC 27853) | IC50 (P. aeruginosa ATCC 27853) | MMC (S. aureus ATCC 25923) | MIC (S. aureus ATCC 25923) | MMC (S. enterica) | MIC (S. enterica) | MMC (S. cerevisiae) | MIC (S. cerevisiae) | MMC (S. boulardii) | MIC (S. boulardii) | MMC (L. plantarum 299V) | MIC (L. plantarum 299V)
1 | C/C(NNC(=O)c1ccc(O)c(O)c1O)=C1\C(=O)Oc2ccccc2C1=O [PCH-1, (E)-N′-(1-(2,4-dioxochroman-3-ylidene)ethyl)-2,3,4-trihydroxybenzohydrazide] | ˃2.70 mM | > 2700 µM | 0.17 mM | 170 µM (≈ 63 µg/mL) | 0.17 mM | 170 µM (≈ 63 µg/mL) | 2.70 mM | 1350 µM (≈ 500 µg/mL) | 2.70 mM | 1350 µM (≈ 500 µg/mL) | 2.70 mM | 2700 µM (≈ 1000 µg/mL)
2 | C/C(NNC(=O)c1cc(O)c(O)c(O)c1)=C1\C(=O)Oc2ccccc2C1=O [PCH-2, (E)-N′-(1-(2,4-dioxochroman-3-ylidene)ethyl)-3,4,5-trihydroxybenzohydrazide] | ˃2.70 mM | > 2700 µM | 0.34 mM | 80 µM (≈ 29.6 µg/mL) | 0.34 mM | 80 µM (≈ 29.6 µg/mL) | 2.70 mM | 1350 µM (≈ 500 µg/mL) | 2.70 mM | 2700 µM (≈ 1000 µg/mL) | 0.67 mM | 670 µM (≈ 248 µg/mL)
